What follows are compounds tested on HCV 1b-Con1 replicon (assay: HCV 1b-Con1 replicon assay in the presence of 5% FBS). Conditions: Hepatitis C virus.
Type: cell-based
In the case of `COC(=O)N[C@H](C(=O)N1C[C@H](F)C[C@H]1c1nc2cc([C@H]3CC[C@H](c4ccc5[nH]c([C@@H]6C[C@@H](F)CN6C(=O)[C@@H](NC(=O)OC)C(C)C)nc5c4)N3c3cc(F)c(N4CCCCC4)c(F)c3)ccc2[nH]1)C(C)C` [Example 4.59, methyl {(2S)-1-[(2S,4R)-2-{5-[(2R,5R)-1-[3,5-difluoro-4-(piperidin-1-yl)phenyl]-5-{2-[(2S,4R)-4-fluoro-1-{(2S)-2-[(methoxycarbonyl)amino]-3-methylbutanoyl}pyrrolidin-2-yl]-1H-benzimidazol-5-yl}pyrrolidin-2-yl]-1H-benzimidazol-2-yl}-4-fluoropyrrolidin-1-yl]-3-methyl-1-oxobutan-2-yl}carbamate], the EC50 is reported as < 0.1 nM.
With `COC(=O)N[C@H](C(=O)N1CCC[C@H]1c1nc2cc([C@H]3CC[C@H](c4cc5nc([C@@H]6CCCN6C(=O)[C@@H](NC(=O)OC)C(C)C)[nH]c5cc4F)N3c3cc(F)c(N4CCN(c5ncccn5)CC4)c(F)c3)c(F)cc2[nH]1)C(C)C` [Example 4.60, methyl {(2S)-1-[(2S)-2-{5-[(2R,5R)-1-{3,5-difluoro-4-[4-(pyrimidin-2-yl)piperazin-1-yl]phenyl}-5-{6-fluoro-2-[(2S)-1-{(2S)-2-[(methoxycarbonyl)amino]-3-methylbutanoyl}pyrrolidin-2-yl]-1H-benzimidazol-5-yl}pyrrolidin-2-yl]-6-fluoro-1H-benzimidazol-2-yl}pyrrolidin-1-yl]-3-methyl-1-oxobutan-2-yl}carbamate] the EC50 was < 0.1 nM.
`COC(=O)N[C@H](C(=O)N1CCC[C@H]1c1nc2cc([C@H]3CC[C@H](c4cc5nc([C@@H]6CCCN6C(=O)[C@@H](NC(=O)OC)C(C)C)[nH]c5cc4F)N3c3cc(F)c(N4CCC(c5ccc(C)s5)CC4)c(F)c3)c(F)cc2[nH]1)C(C)C` [Example 4.61, methyl {(2S)-1-[(2S)-2-{5-[(2R,5R)-1-{3,5-difluoro-4-[4-(5-methyl-2-thienyl)piperidin-1-yl]phenyl}-5-{6-fluoro-2-[(2S)-1-{(2S)-2-[(methoxycarbonyl)amino]-3-methylbutanoyl}pyrrolidin-2-yl]-1H-benzimidazol-5-yl}pyrrolidin-2-yl]-6-fluoro-1H-benzimidazol-2-yl}pyrrolidin-1-yl]-3-methyl-1-oxobutan-2-yl}carbamate] was tested, and the EC50 was < 0.1 nM.
With `COC(=O)N[C@H](C(=O)N1CCC[C@H]1c1nc2cc([C@H]3CC[C@H](c4cc5nc([C@@H]6CCCN6C(=O)[C@@H](NC(=O)OC)C(C)C)[nH]c5cc4F)N3c3cc(F)c(N4CCC(F)(c5ccccc5)CC4)c(F)c3)c(F)cc2[nH]1)C(C)C` [Example 4.62, methyl {(2S)-1-[(2S)-2-{5-[(2R,5R)-1-[3,5-difluoro-4-(4-fluoro-4-phenylpiperidin-1-yl)phenyl]-5-{6-fluoro-2-[(2S)-1-{(2S)-2-[(methoxycarbonyl)amino]-3-methylbutanoyl}pyrrolidin-2-yl]-1H-benzimidazol-5-yl}pyrrolidin-2-yl]-6-fluoro-1H-benzimidazol-2-yl}pyrrolidin-1-yl]-3-methyl-1-oxobutan-2-yl}carbamate] the EC50 was < 0.1 nM.
In the case of `COC(=O)N[C@H](C(=O)N1CCC[C@H]1c1nc2cc([C@H]3CC[C@H](c4ccc5[nH]c([C@@H]6CCCN6C(=O)[C@@H](NC(=O)OC)C(C)C)nc5c4)N3c3cc(F)c(N4CCC(c5ccccc5)(c5ccccc5)CC4)c(F)c3)ccc2[nH]1)C(C)C` [Example 5.2, methyl {(2S)-1-[(2S)-2-{5-[(2R,5R)-1-[4-(4,4-diphenylpiperidin-1-yl)-3,5-difluorophenyl]-5-{2-[(2S)-1-{(2S)-2-[(methoxycarbonyl)amino]-3-methylbutanoyl}pyrrolidin-2-yl]-1H-benzimidazol-5-yl}pyrrolidin-2-yl]-1H-benzimidazol-2-yl}pyrrolidin-1-yl]-3-methyl-1-oxobutan-2-yl}carbamate], the EC50 is reported as < 0.1 nM.
In the case of `COC(=O)N[C@H](C(=O)N1CCC[C@H]1c1nc2cc([C@H]3CC[C@H](c4ccc5[nH]c([C@@H]6CCCN6C(=O)[C@@H](NC(=O)OC)[C@@H](C)OC)nc5c4)N3c3cc(F)c(N4CCC(c5ccccc5)CC4)c(F)c3)ccc2[nH]1)[C@@H](C)OC` [Example 5.3, methyl {(2S,3R)-1-[(2S)-2-{5-[(2R,5R)-1-[3,5-difluoro-4-(4-phenylpiperidin-1-yl)phenyl]-5-(2-{(2S)-1-[N-(methoxycarbonyl)-O-methyl-L-threonyl]pyrrolidin-2-yl}-1H-benzimidazol-5-yl)pyrrolidin-2-yl]-1H-benzimidazol-2-yl}pyrrolidin-1-yl]-3-methoxy-1-oxobutan-2-yl}carbamate], the EC50 is reported as < 0.1 nM.
In the case of `COC(=O)N[C@H](C(=O)N1CCC[C@H]1c1nc2cc([C@H]3CC[C@H](c4ccc5[nH]c([C@@H]6CCCN6C(=O)[C@@H](NC(=O)OC)C(C)(C)C)nc5c4)N3c3cc(F)c(N4CCC(c5ccccc5)CC4)c(F)c3)ccc2[nH]1)C(C)(C)C` [Example 5.4, methyl {(2S)-1-[(2S)-2-{5-[(2R,5R)-1-[3,5-difluoro-4-(4-phenylpiperidin-1-yl)phenyl]-5-{2-[(2S)-1-{(2S)-2-[(methoxycarbonyl)amino]-3,3-dimethylbutanoyl}pyrrolidin-2-yl]-1H-benzimidazol-5-yl}pyrrolidin-2-yl]-1H-benzimidazol-2-yl}pyrrolidin-1-yl]-3,3-dimethyl-1-oxobutan-2-yl}carbamate], the EC50 is reported as < 0.1 nM.
In the case of `COC(=O)N[C@H](C(=O)N1C[C@H](OC)C[C@H]1c1nc2cc([C@H]3CC[C@H](c4ccc5[nH]c([C@@H]6C[C@@H](OC)CN6C(=O)[C@@H](NC(=O)OC)C(C)C)nc5c4)N3c3cc(F)c(N4CCCCC4)c(F)c3)ccc2[nH]1)C(C)C` [Example 5.5, methyl {(2S)-1-[(2S,4R)-2-{5-[(2R,5R)-1-[3,5-difluoro-4-(piperidin-1-yl)phenyl]-5-{2-[(2S,4R)-4-methoxy-1-{(2S)-2-[(methoxycarbonyl)amino]-3-methylbutanoyl}pyrrolidin-2-yl]-1H-benzimidazol-5-yl}pyrrolidin-2-yl]-1H-benzimidazol-2-yl}-4-methoxypyrrolidin-1-yl]-3-methyl-1-oxobutan-2-yl}carbamate], the EC50 is reported as < 0.1 nM.
With `COC(=O)N[C@H](C(=O)N1CCC[C@H]1c1nc2cc([C@H]3CC[C@H](c4ccc5[nH]c([C@@H]6CCCN6C(=O)[C@@H](NC(=O)OC)C6CCCCC6)nc5c4)N3c3cc(F)c(N4CCCCC4)c(F)c3)ccc2[nH]1)C1CCCCC1` [Example 5.6, dimethyl ({(2R,5R)-1-[3,5-difluoro-4-(piperidin-1-yl)phenyl]pyrrolidine-2,5-diyl}bis{1H-benzimidazole-5,2-diyl(2S)pyrrolidine-2,1-diyl [(1S)-1-cyclohexyl-2-oxoethane-2,1-diyl]})biscarbamate] the EC50 was < 0.1 nM.
With `COC(=O)N[C@H](C(=O)N1CCC[C@H]1c1nc2ccc([C@H]3CC[C@H](c4ccc5nc([C@@H]6CCCN6C(=O)[C@@H](NC(=O)OC)C(C)C)[nH]c5c4)N3c3cc(F)c(N4CC(C)CC(C)C4)c(F)c3)cc2[nH]1)C(C)C` (stereo partly drawn) [Example 5.7, methyl {(2S)-1-[(2S)-2-{6-[(2R,5R)-1-[4-(3,5-dimethylpiperidin-1-yl)-3,5-difluorophenyl]-5-{2-[(2S)-1-{(2S)-2-[(methoxycarbonyl)amino]-3-methylbutanoyl}pyrrolidin-2-yl]-1H-benzimidazol-6-yl}pyrrolidin-2-yl]-1H-benzimidazol-2-yl}pyrrolidin-1-yl]-3-methyl-1-oxobutan-2-yl}carbamate] the EC50 was < 0.1 nM.
For `COC(=O)N[C@H](C(=O)N1CCC[C@H]1c1nc2cc([C@H]3CC[C@H](c4ccc5[nH]c([C@@H]6CCCN6C(=O)[C@@H](NC(=O)OC)C(C)C)nc5c4)N3c3cc(F)c(N4CCC(C(F)(F)F)CC4)c(F)c3)ccc2[nH]1)C(C)C` [Example 5.8, methyl {(2S)-1-[(2S)-2-{5-[(2R,5R)-1-{3,5-difluoro-4-[4-(trifluoromethyl)piperidin-1-yl]phenyl}-5-{2-[(2S)-1-{(2S)-2-[(methoxycarbonyl)amino]-3-methylbutanoyl}pyrrolidin-2-yl]-1H-benzimidazol-5-yl}pyrrolidin-2-yl]-1H-benzimidazol-2-yl}pyrrolidin-1-yl]-3-methyl-1-oxobutan-2-yl}carbamate], the EC50 was < 0.1 nM.
In the case of `COC(=O)N[C@H](C(=O)N1CCC[C@H]1c1nc2cc([C@H]3CC[C@H](c4ccc5[nH]c([C@@H]6CCCN6C(=O)[C@@H](NC(=O)OC)C(C)C)nc5c4)N3c3cc(F)c(N4CCC(C(C)(C)C)CC4)c(F)c3)ccc2[nH]1)C(C)C` [Example 5.9, methyl {(2S)-1-[(2S)-2-{5-[(2R,5R)-1-[4-(4-tert-butylpiperidin-1-yl)-3,5-difluorophenyl]-5-{2-[(2S)-1-{(2S)-2-[(methoxycarbonyl)amino]-3-methylbutanoyl}pyrrolidin-2-yl]-1H-benzimidazol-5-yl}pyrrolidin-2-yl]-1H-benzimidazol-2-yl}pyrrolidin-1-yl]-3-methyl-1-oxobutan-2-yl}carbamate], the EC50 is reported as < 0.1 nM.
In the case of `COC(=O)N[C@H](C(=O)N1CCC[C@H]1c1nc2cc([C@H]3CC[C@H](c4ccc5[nH]c([C@@H]6CCCN6C(=O)[C@@H](NC(=O)OC)C(C)C)nc5c4)N3c3cc(F)c(N4CCC(C)(C)CC4)c(F)c3)ccc2[nH]1)C(C)C` [Example 5.10, methyl {(2S)-1-[(2S)-2-{5-[(2R,5R)-1-[4-(4,4-dimethylpiperidin-1-yl)-3,5-difluorophenyl]-5-{2-[(2S)-1-{(2S)-2-[(methoxycarbonyl)amino]-3-methylbutanoyl}pyrrolidin-2-yl]-1H-benzimidazol-5-yl}pyrrolidin-2-yl]-1H-benzimidazol-2-yl}pyrrolidin-1-yl]-3-methyl-1-oxobutan-2-yl}carbamate], the EC50 is reported as < 0.1 nM.
With `COC(=O)N[C@H](C(=O)N1CCC[C@H]1c1nc2cc([C@H]3CC[C@H](c4ccc5[nH]c([C@@H]6CCCN6C(=O)[C@@H](NC(=O)OC)C(C)C)nc5c4)N3c3cc(F)c(N4CCC5(CC4)CC5)c(F)c3)ccc2[nH]1)C(C)C` [Example 5.11, methyl {(2S)-1-[(2S)-2-{5-[(2R,5R)-1-[4-(6-azaspiro[2.5]oct-6-yl)-3,5-difluorophenyl]-5-{2-[(2S)-1-{(2S)-2-[(methoxycarbonyl)amino]-3-methylbutanoyl}pyrrolidin-2-yl]-1H-benzimidazol-5-yl}pyrrolidin-2-yl]-1H-benzimidazol-2-yl}pyrrolidin-1-yl]-3-methyl-1-oxobutan-2-yl}carbamate] the EC50 was < 0.1 nM.

— patent US20120220562A1, “Anti-Viral Compounds” (ABBOTT LABAORATORIES, priority 2011, published 2012)
